Key:
CD-1 mice = test: PTZ-induced epilepsy model in mice; type: in vivo; details: 3 mpk p.o., PTZ 120 mg/kg s.c., 30 min observation
Procedure: The PTZ-induced epilepsy model in CD-1 mice was established, and the antiepileptic effect of the compounds of Example 2, Example 40, Example 41 and Example 52 was evaluated using this model.
50 male CD-1 mice were purchased from Beijing Vital River Laboratory Animal Technology Co. Ltd. The test animals were adapted at the animal room in the third building of Shanghai ChemPartner Co., Ltd for 7 days before the experiment. The average body weight of the animals on the test day was 32.2±0.2 grams. Feeding environment: 5 animals/cage, room temperature 23±2° C., 12/12 hours of light and dark cycle, free access to food and water.
The mice were randomly grouped for the experiment on the test day.
Compounds of Example 2, Example 40, Example 41 and Example 52 (prepared by the applicant). The test compounds were stored in a refrigerator at 4° C.
4.2.3 Test Equipments • 1 ml sterile disposable syringe with needle (purchased from Zhejiang Kangdelai Medical Devices Co., Ltd.) • Pipette: Eppendorf Research Plus (100-1000 μL) • Vortex mixer: Kylin-Bell Vortex 5 • Ultrasonic instrument: JL-360 ultrasonic cleaner • Balance: METTLER TOLEDO XS204 precision balance • Balance: METTLER TOLEDO XS6002S electronic balance • Plexiglass box: 25 cm length*15 cm width*15 cm height with one opaque side wall, custom made by Suzhou Fengshi Laboratory Animal Equipment Co., Ltd • 3-channel timer: Oregon/Model NO. WB-388. 4.2.4 Test Animal Grouping • 1) Vehicle/PTZ: 0.5% CMC-Na+1% Tween-80 (10 ml/kg, p.o.), administered 0.5 hr before the PTZ administration; PTZ ([…], s.c.), administered before the experiment; • 2) 3 mg/kg of the compounds of Examples/PTZ: the compounds of Example 2, Example 40, Example 41 and Example 52 (3 mg/kg, 10 ml/kg, p.o.), administered 0.5 hr before the PTZ administration; PTZ ([…], s.c.), administered before the experiment. 4.3 Experimental Procedures 4.3.1 Solvent Formulation • 1) 0.5% CMC-Na+1% Tween-80 (administration volume: 10 mL/kg):
1 g of sodium carboxymethyl cellulose was precisely weighed and added to a 250 mL solvent bottle, then 150 mL of double-distilled water was added. The mixture was stirred at room temperature for 4 hours with a magnetic stirrer to obtain a uniform and clear solution. 2 mL of Tween-80 was slowly added, and the mixture was stirred at room temperature for 3 hours to obtain a uniform and clear solution. The solution was slowly transferred to a 200 mL volumetric flask, and double distilled water was added to the constant volume of 200 mL. The solution was transferred to a 250 mL solvent bottle, and stirred for 1 hour with a magnetic stirrer to obtain a uniform and clear solution. • 2) 30% hydroxypropyl-p-cyclodextrin:
248 mg of PTZ was precisely weighed and added to a 40 mL brown flask, then 20.667 mL of physiological saline was added. The mixture was mixed by vortex for 2 minutes, and treated by ultrasound at room temperature for 2 minutes to obtain a uniform and clear solution (concentration: 12 mg/mL). • 2) 0.3 mg/mL of the compounds of Example 5 or Example 23 (dose: 3 mg/kg; administration volume: 10 mL/kg): […]
4.4 Adaptation to the Environment
The mice were randomly grouped, marked and weighed; 10 mice per group. The test compound was administered orally at an administration volume of 10 mL/kg 30-60 minutes before the PTZ administration.
PTZ (120 mg/kg) was administrated subcutaneously before the experiment observation, and this time point was recorded as the observation start point; after the administration of PTZ, the animal was immediately placed in the observation box and observed for 30 minutes, and the followings were recorded: a) the incubation period of the first clonic seizure, b) the incubation period of the first generalized tonic seizure, c) the number of clonic seizures, d) the number of generalized tonic seizures, e) the time when the animal died.
All measurement data were expressed as Mean±SEM, and analysed with Prism 6.0 statistical software.

[1] = molecular target: T1, human GABAA receptor α1, β2 and γ2 subunit (HEK293T cell line) (Homo sapiens, UniProt P14867+P47870); test: Positive regulatory effect on GABAA receptor, manual patch clamp; type: cell-based; details: whole-cell current, 1 μM GABA
T1 construct: expressed in transfected cells
Procedure: The objective of this test example is to determine the positive regulatory effect of the compound on GABAA receptor by the electrophysiological manual patch clamp method.
Manual patch clamp system HEKA EPC10 USB signal amplifier and digital conversion system (purchased from HEKA Electronics, Germany), centrifuge (Eppendorf, etc.), carbon dioxide incubator (purchased from Thermo, etc.), biological safety cabinet (Thermo, etc.), pipette (purchased from Eppendorf, etc.).
The cells were grown in a culture dish with DMEM medium (purchased from Invitrogen), and cultured in an incubator at 37° C. and 5% CO2. Before the electrophysiological experiment, the cells were transferred to a round glass slide placed in the culture dish, and grown in the same culture medium and under the same culture condition as above. The density of cells on each round glass slide should meet the requirement that most cells were independent and individual.
Each test compound was diluted in gradient with DMSO to obtain a stock solution, which was then diluted with extracellular fluid by 1,000-fold to obtain the final test concentration. The final concentration of DMSO in the compound solution with each concentration was 0.1%. The experiment used the manual patch clamp system HEKA EPC10 USB signal amplifier and digital conversion system for whole cell current recording. The round glass slide with HEK293T GABAA cells grown on the surface was taken out of the culture dish, and placed in the electrophysiological recording tank under the inverted microscope. The recording tank was continuously perfused with extracellular fluid. During the experiment, the whole-cell current recording technology was used to record the chloride current of the GABAA channel. 1 μM GABA was used to activate the chloride current of the GABAA channel of each cell as an initial control. 1 μM GABA acted on the cell through the drug perfusion system to induce the chloride current of the GABAA channel, the action time was about 3 to 5 seconds, and the current value was used as the initial control value. The test concentration of compound was perfused and incubated for 2 to 5 minutes. […] GABA solution (mixed with the test concentration of compound) was given to the cells to observe the enhancement effect of the test compound on the current induced by 1 μM GABA. When the cell state was stable, the test compound acted on the same cell from low to high concentration to record the enhancement effect of the induced current.
The experimental data was analyzed by HEKA Patchmaster, Microsoft Excel and the data analysis software provided by Graphpad Prism.

T1 sequence (P14867 28-456): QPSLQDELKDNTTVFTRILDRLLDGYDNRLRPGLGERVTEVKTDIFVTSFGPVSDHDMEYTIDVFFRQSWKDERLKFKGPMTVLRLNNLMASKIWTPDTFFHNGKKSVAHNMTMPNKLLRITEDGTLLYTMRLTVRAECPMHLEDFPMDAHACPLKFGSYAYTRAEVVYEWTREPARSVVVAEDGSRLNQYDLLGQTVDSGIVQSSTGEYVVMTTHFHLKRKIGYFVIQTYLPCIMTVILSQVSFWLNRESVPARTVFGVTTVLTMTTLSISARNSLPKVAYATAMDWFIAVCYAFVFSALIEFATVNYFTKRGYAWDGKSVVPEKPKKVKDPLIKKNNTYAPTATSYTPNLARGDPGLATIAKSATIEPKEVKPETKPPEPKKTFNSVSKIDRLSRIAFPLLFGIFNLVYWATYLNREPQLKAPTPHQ
T1 sequence (P47870 25-512 limits assumed): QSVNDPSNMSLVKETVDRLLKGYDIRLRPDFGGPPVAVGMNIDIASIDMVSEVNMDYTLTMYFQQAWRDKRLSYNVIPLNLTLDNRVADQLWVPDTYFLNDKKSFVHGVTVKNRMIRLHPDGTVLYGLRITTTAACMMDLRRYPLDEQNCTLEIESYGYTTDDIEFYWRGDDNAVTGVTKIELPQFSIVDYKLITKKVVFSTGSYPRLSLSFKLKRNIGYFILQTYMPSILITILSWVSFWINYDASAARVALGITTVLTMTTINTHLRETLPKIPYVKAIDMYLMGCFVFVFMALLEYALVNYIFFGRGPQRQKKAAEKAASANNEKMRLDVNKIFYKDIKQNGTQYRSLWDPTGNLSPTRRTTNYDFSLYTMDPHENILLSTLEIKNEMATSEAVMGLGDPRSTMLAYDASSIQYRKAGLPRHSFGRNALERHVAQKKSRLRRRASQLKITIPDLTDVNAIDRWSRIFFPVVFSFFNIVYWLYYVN
T1 sequence (P18507 40-475 partner): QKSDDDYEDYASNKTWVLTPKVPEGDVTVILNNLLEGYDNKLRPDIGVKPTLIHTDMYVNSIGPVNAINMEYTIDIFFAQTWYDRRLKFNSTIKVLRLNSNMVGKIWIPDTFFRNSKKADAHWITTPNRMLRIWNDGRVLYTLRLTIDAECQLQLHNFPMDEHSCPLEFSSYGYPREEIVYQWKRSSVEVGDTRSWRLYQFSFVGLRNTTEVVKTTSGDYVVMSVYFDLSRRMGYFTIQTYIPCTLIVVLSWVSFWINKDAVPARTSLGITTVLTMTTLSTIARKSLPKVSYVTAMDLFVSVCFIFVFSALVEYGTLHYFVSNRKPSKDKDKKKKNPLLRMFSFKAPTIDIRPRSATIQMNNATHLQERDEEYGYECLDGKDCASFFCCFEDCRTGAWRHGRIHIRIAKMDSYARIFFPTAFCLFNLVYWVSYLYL

| Structure (SMILES) | Incubation period of the clonic seizure (sec) Mean ± SEM (CD-1 mice) [s] | Incubation period of the generalized tonic seizure (sec) Mean (CD-1 mice) [s] | Mortality rate (%) (CD-1 mice) | Number of clonic seizures Mean (CD-1 mice) | Number of generalized tonic seizures Mean (CD-1 mice) | Time when the animal died (sec) Mean (CD-1 mice) [s] | EC50 [1] [nM] |
| --- | --- | --- | --- | --- | --- | --- | --- |
| C[C@@]1(O)CC[C@H]2[C@H](CC[C@@H]3[C@@H]2CC[C@@]2(C)[C@H]3[C@@H]3C[C@@H]3[C@@H]2C(=O)Cn2ccc(C#N)n2)C1 [Example 2, 1-(2-((2R,4aS,4bR,6aS,7S,7aS,8aR,8bR,8cR,10aR)-2-Hydroxy-2,6a-dimethyloctadecahydrocyclopropa[4,5]cyclopenta[1,2-a]phenanthren-7-yl)-2-oxoethyl)-1H-pyrazole-3-carbonitrile] | 902.9 ± 200.8 | 1736.0 ± 63.2 | 10 | 1.3 ± 0.3 | 0.1 ± 0.1 | 1739.8 ± 60.2 |  |
| C[C@@H]1C[C@H](C(=O)Cn2ccc(C#N)n2)[C@@]2(C)CC[C@H]3[C@@H](CC[C@@H]4C[C@](C)(O)CC[C@@H]43)[C@H]12 [Example 40, 1-(2-((3R,5R,8R,9R,10S,13S,14S,15R,17S)-3-Hydroxy-3,13,15-trimethylhexadecahydro-1H-cyclopenta[a]phenanthren-17-yl)-2-oxoethyl)-1H-pyrazole-3-carbonitrile] | 1308.1 ± 170.1 | 1800.0 ± 0.0 | 0 | 0.5 ± 0.2 | 0.0 ± 0.0 | 1800.0 ± 0.0 | 57 |

Source: US12590118B2, “Salt and crystal form of steroid derivative regulator” (Shanghai Hansoh Biomedical Co., Ltd., priority 2019, dated 2026)
